The values that follow come from patent US10584115B2, “Substituted pyridine and pyrazine BMI-1 inhibitors” (PTC Therapeutics, Inc., priority 2013, dated 2020).

Structures are written as SMILES.

One series relates to Bmi-1 protein. The series is described as follows: Sandwich ELISA Assay (Bmi-1 protein level in HT-1080 cells after compound treatment). The class given is cell-based. The following applies: Table 1, Bmi-1 sandwich ELISA, read-out: ELISA EC50 value for Bmi-1 protein. The method in brief: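 Sandwich ELISA quantified Bmi-1 protein against recombinant standard (125–8000 pg/mL), with lysates captured overnight at 4 °C and signal by HRP/TMB at 450 nm (570 nm reference). Lysates came from HT-1080 cells incubated 40–48 h with test compounds in 0.5% DMSO.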

For orientation: melting point means the temperature, or range, at which the solid turns liquid. As usually defined, the EC50 is the concentration needed to bring the measured effect to its halfway point. Molecule `FC(F)(F)Oc1ccc(Nc2cncc(-c3cccc4nc(C5CC5)cn34)n2)cc1` [compound 87, 6-(2-cyclopropylimidazo[1,2-a]pyridin-5-yl)-N-[4-(trifluoromethoxy)phenyl]pyrazin-2-amine] gave a melting point of 225 to 227 °C. Also, in the series with Bmi-1 protein, the EC50 is 100 to 3000 nM.
`Cc1nc2ccc(F)cn2c1-c1cc(N)cc(Nc2ccc(OC(F)F)c(F)c2)n1` [compound 315, N^2-[4-(difluoromethoxy)-3-fluorophenyl]-6-(6-fluoro-2-methylimidazo[1,2-a]pyridin-3-yl)pyridine-2,4-diamine] yielded a melting point of 182 to 183 °C. In addition, the EC50 in the series on Bmi-1 protein fell in the range of 1 to 10 nM.
In the case of `Cc1nn(Cc2ccncc2)c(C)c1-c1cncc(Nc2ccc(C(F)(F)F)cc2)n1` [compound 403, 6-[3,5-dimethyl-1-(pyridin-4-ylmethyl)-1H-pyrazol-4-yl]-N-[4-(trifluoromethyl)phenyl]pyrazin-2-amine], the melting point lay within 66 to 67 °C. The EC50 in the series with Bmi-1 protein was in the range of 10 to 100 nM.
The like results for `FC1(F)Oc2ccc(Nc3cncc(-c4c(C(F)(F)F)nc5ccccn45)n3)cc2O1` [compound 91, N-(2,2-difluoro-1,3-benzodioxol-5-yl)-6-[2-(trifluoromethyl)imidazo[1,2-a]pyridin-3-yl]pyrazin-2-amine] were, in that order, 232 to 234 °C and 100 to 3000 nM.
In the case of `Fc1ccc2nc(C3CC3)c(-c3cncc(Nc4ccc(C(F)(F)F)cc4)n3)n2c1` [compound 336, 6-(2-cyclopropyl-6-fluoroimidazo[1,2-a]pyridin-3-yl)-N-[4-(trifluoromethyl)phenyl]pyrazin-2-amine], the melting point fell in the range of 183 to 185 °C. The EC50 with Bmi-1 protein is 1 to 10 nM.
The molecule `Cc1cn2c(-c3cc(C#N)cc(Nc4ccc(C(F)(F)F)cc4)n3)c(C3CC3)nc2c(C)n1` [compound 491, 2-(2-cyclopropyl-6,8-dimethylimidazo[1,2-a]pyrazin-3-yl)-6-{[4-(trifluoromethyl)phenyl]amino}pyridine-4-carbonitrile] came in with a melting point of 150 to 152 °C. The EC50 in the series with Bmi-1 protein lay in the range of 100 to 3000 nM.
The molecule `N#Cc1cc(Nc2ccc(OC(F)(F)F)cc2)nc(-c2c(C3CC3)nc3ccc(F)cn23)c1` [compound 350, 2-(2-cyclopropyl-6-fluoroimidazo[1,2-a]pyridin-3-yl)-6-{[4-(trifluoromethoxy)phenyl]amino}pyridine-4-carbonitrile] displayed a melting point of 194 to 195 °C. In the series with Bmi-1 protein, the EC50 is 10 to 100 nM.
In the case of `Cc1nn(C)c(C)c1-c1cncc(Nc2ccc(C(F)(F)F)cc2)n1` [compound 128, N-[4-(trifluoromethyl)phenyl]-6-(1,3,5-trimethyl-1H-pyrazol-4-yl)pyrazin-2-amine], the melting point fell in the range of 201 to 202 °C. Further, the concentration for a half-maximal effect (EC50) in the series with Bmi-1 protein is 1 to 10 nM.
`Cc1nn(Cc2cccnc2)c(C)c1-c1cncc(Nc2ccc(C(F)(F)F)cc2)n1` [compound 402, 6-[3,5-dimethyl-1-(pyridin-3-ylmethyl)-1H-pyrazol-4-yl]-N-[4-(trifluoromethyl)phenyl]pyrazin-2-amine] came in with a melting point of 47 to 48 °C. Also, the EC50 with Bmi-1 protein was 10 to 100 nM.
